# Data taken from patent publication US10675277B2, “Complexes of ivacaftor and its salts and derivatives, process for the preparation thereof and pharmaceutical compositions containing them” (NanGenex Nanotechnology Incorporated, priority 2016, dated 2020).
# Legend:
# [1] = cited from earlier work; for share of the total dose eliminated as metabolite: oral administration of Ivacaftor
# [2] = cited from earlier work
# [3] = system: CYP3A; conditions: in-vitro and clinical studies, humans; cited from earlier work
# [4] = target: CFTR protein (Homo sapiens, UniProt P13569); conditions: fraction of the potency of Ivacaftor; cited from earlier work
# [5] = Apparent solubility by UV-VIS after 100 nm filtration; assay type: physicochemical; conditions: ultrapurified water, thermodynamic from solid, comparative formulation study, read-out: apparent solubility (comparative measurements, FIG. 15)
# Description: (§1) The solid complex Ivacaftor formulations were dispersed in ultrapurified water in 1-10 mg/mL Ivacaftor equivalent concentration range. The resulting solutions were filtered by 100 nm disposable syringe filter. The Ivacaftor content in the filtrate was measured by UV-Vis spectrophotometry and the apparent solubility was calculated. The filtrate may contain Ivacaftor complex particles which could not be filtrated out using 100 nm pore size filter.
# as §1, with “1” for “1-10”
# Sequence of CFTR protein (P13569 whole entry): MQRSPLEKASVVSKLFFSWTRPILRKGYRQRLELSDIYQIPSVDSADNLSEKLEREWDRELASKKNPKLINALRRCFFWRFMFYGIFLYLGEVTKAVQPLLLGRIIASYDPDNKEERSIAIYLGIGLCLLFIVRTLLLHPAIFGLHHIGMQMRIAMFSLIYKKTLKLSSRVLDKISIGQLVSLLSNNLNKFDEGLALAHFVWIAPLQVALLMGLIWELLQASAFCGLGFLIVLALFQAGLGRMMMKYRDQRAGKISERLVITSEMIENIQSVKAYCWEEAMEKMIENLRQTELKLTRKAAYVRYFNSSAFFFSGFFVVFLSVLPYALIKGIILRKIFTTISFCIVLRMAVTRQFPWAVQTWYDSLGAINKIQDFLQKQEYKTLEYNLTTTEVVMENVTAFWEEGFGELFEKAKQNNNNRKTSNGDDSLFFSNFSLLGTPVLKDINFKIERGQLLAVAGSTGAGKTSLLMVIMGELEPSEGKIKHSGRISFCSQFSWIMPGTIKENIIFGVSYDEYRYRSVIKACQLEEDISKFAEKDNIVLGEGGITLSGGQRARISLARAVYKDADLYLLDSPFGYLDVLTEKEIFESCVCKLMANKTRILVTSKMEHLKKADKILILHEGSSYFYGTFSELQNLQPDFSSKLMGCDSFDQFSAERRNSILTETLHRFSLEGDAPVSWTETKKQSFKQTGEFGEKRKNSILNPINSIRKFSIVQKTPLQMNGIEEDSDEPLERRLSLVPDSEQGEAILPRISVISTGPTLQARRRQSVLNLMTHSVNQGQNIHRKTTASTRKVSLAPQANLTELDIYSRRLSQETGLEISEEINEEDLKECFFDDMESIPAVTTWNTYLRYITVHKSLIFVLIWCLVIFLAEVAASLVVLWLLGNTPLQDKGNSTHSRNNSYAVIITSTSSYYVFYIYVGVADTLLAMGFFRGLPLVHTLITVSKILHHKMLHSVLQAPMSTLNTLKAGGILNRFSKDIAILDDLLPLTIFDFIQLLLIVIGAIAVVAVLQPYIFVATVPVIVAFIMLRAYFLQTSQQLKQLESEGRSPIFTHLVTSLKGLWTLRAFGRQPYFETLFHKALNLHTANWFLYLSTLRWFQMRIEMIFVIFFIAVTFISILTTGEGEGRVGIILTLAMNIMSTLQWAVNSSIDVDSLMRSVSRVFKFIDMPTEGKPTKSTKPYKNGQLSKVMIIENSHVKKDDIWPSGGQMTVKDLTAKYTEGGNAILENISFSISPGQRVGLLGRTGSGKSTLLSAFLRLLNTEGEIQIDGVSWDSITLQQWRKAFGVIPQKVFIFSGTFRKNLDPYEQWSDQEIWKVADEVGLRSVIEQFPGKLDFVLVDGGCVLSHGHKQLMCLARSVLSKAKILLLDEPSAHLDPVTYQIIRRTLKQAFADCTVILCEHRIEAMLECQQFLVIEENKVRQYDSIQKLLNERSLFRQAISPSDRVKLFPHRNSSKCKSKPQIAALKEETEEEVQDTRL
smiles,measurement,setting,value
"CC(C)(C)c1cc(C(C)(C)C)c(NC(=O)c2c[nH]c3ccccc3c2=O)cc1O [Ivacaftor, N-(2,4-di-tert-butyl-5-hydroxyphenyl)-1,4-dihydro-4-oxoquinoline-3-carboxamide]","mean apparent clearance (CL/F), healthy subjects versus patients with CF","[1]; human, in vivo",similar
same,eliminated in the feces after metabolic conversion,[1]; oral administration,87.8%
same,urinary excretion as unchanged parent,[1]; oral administration,negligible
same,tmax (peak plasma concentrations),"[1]; single 150 mg oral dose, healthy volunteers, fed state",approximately 4 hours
same,"mean apparent volume of distribution (Vz/F), healthy subjects versus patients with CF","[1]; single dose of 275 mg of KALYDECO, fed state",similar
same,apparent terminal half-life,[1]; single dose,approximately 12 hours
same,solubility in water,[2],< 0.05 microgram/mL
same,metabolism,[3],primarily metabolized by CYP3A
CC(C)(C)c1cc(C(C)(C)CO)c(O)cc1NC(=O)c1c[nH]c2ccccc2c1=O [M1],potency relative to Ivacaftor,[4],approximately one-sixth
same,share of the total dose eliminated as metabolite,[1],22%
CC(C)(C)c1cc(C(C)(C)C(=O)O)c(O)cc1NC(=O)c1c[nH]c2ccccc2c1=O [M6],potency relative to Ivacaftor,[4],less than one-fiftieth
same,share of the total dose eliminated as metabolite,[1],43%
"CC(C)(C)c1cc(C(C)(C)C)c(NC(=O)c2c[nH]c3ccccc3c2=O)cc1O [crystalline Ivacaftor, N-(2,4-di-tert-butyl-5-hydroxyphenyl)-1,4-dihydro-4-oxoquinoline-3-carboxamide]",solubility,[5],< 100 µg/mL
